For 3 compounds, Kd and GI50 results are on record in patent US12558428B2, “Heterobifunctional compounds and their use in treating disease” (Halda Therapeutics OpCo, Inc., priority 2024, dated 2026).

By Kd is commonly meant the equilibrium constant for the complex coming apart. A low value points to higher affinity. In general, GI50 refers to the concentration that inhibits growth by half.

For assay [1], the target named is T1, CDK1 (Homo sapiens, UniProt P06493).
T1 construct: made in house; host or cells: T7 phage in E. coli BL21-derived host, or HEK-293 cells
T1 sequence (P06493 whole entry): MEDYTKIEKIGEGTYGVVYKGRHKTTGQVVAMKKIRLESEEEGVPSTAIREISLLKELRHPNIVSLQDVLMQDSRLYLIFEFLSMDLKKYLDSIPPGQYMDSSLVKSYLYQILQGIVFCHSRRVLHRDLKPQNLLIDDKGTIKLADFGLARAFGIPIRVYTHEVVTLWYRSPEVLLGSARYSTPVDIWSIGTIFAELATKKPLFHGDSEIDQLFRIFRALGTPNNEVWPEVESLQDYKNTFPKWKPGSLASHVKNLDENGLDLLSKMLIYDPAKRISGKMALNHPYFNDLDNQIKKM
The assay can be described thus: Binding affinity to CDK1 (KdELECT assay). Here is the method:
Exemplary compounds were tested for ability to bind to CDK1.
Compounds were tested using a KdELECT assay. Kinase-tagged T7 phage strains were prepared in an E. coli host derived from the BL21 strain. E. coli were grown to log-phase and infected with T7 phage and incubated with shaking at 32° C. until lysis. The lysates were centrifuged and filtered to remove cell debris. The remaining kinases were produced in HEK-293 cells and subsequently tagged with DNA for qPCR detection. Streptavidin-coated magnetic beads were treated with biotinylated small molecule ligands for 30 minutes at room temperature to generate affinity resins for kinase assays. The liganded beads were blocked with excess biotin and washed with blocking buffer (SeaBlock (Pierce), 1% BSA, 0.05% Tween 20, 1 mM DTT) to remove unbound ligand and to reduce non-specific binding. Binding reactions were assembled by combining kinases, liganded affinity beads, and test compounds in 1× binding buffer (20% SeaBlock, 0.17×PBS, 0.05% Tween 20, 6 mM DTT). Test compounds were prepared as 11 IX stocks in 100% DMSO. Kd values were determined using an 11-point 3-fold compound dilution series with three DMSO control points. All compounds for Kd measurements are distributed by acoustic transfer (non-contact dispensing) in 100% DMSO. […] The kinase concentration in the eluates was measured by qPCR.

Assay [2] relates to MCF7 cells (ECACC #86012803). Description: Cellular growth inhibition assay, MCF7 cells purchased from ECACC. The class given is cell-based. The conditions noted are these: Homo sapiens, 144 h; MCF7 cells purchased from ECACC (#86012803); six days treatment; CellTiter-Glo 2.0 viability. The method, then:
Exemplary compounds were tested for the ability to inhibit the proliferation of MCF7 cells.
MCF7 cells (ATCC #HTB-22 or ECACC #86012803) were cultured in RPMI 1640 medium supplemented with 10% heat-inactivated fetal bovine serum, 1% pen-strep, and 0.2 U/ml insulin. Cells were seeded in 25 μL of RPMI 1640 medium supplemented with 10% heat-inactivated fetal bovine serum, 1% pen-strep, 0.2 U/ml insulin in poly-D-lysine treated, black clear-bottom 384-well plates at 225 cells/well for MCF7 cells purchased from ECACC or 1,500 cells/well for MCF7 cells purchased from ATCC. Following seeding, plates were spun at 300×g for 30 seconds and cultured at 37° C. with 5% CO2 in a humidified tissue culture incubator.
At 24 hours after seeding, compounds were titrated in 100% DMSO and diluted in RPMI 1640 medium supplemented with 10% heat-inactivate fetal bovine serum, 1% pen-strep, and 0.2 U/ml insulin. A 25 μL aliquot of the compound/media mixture was added to cells, bringing the total volume in each well to 50 μL. An equal volume of DMSO without compound was used as a negative control. After treatment, plates were spun at 300×g for 30 seconds, then cultured at 37° C. with 5% CO2 for six days in a humidified tissue culture incubator.
On Day 6 of treatment, cell viability was quantified with CellTiter-Glo 2.0 reagent (Promega). Plates were equilibrated to room temperature for 30 minutes, then 25 μL of CellTiter-Glo 2.0 reagent was added to cells, bringing the total volume in each well to 75 μL. After reagent was added, plates were mixed on a shaker for two minutes at 500 rpm and then incubated at room temperature for 10 minutes. Following incubation, plates were spun at 3,000×g for 30 seconds, sealed with an optical adhesive cover, and luminescence readings were measured with an EnVision Plate Reader.
Data was normalized to 0 luminescence for baseline. A four-parameter, non-linear regression curve fit was applied to dose-response data in GraphPad Prism data analysis software to determine the half maximal growth inhibitory concentration (GI50) for each compound.
(ATP-based viability assays read luminescence as a measure of living cells.)

Assay [3] has as its system T-Rex 293 cells having increased expression of estrogen receptor alpha protein. The assay can be described thus: Cellular growth inhibition assay, T-Rex 293 cells, (+) doxycycline. Type of assay: cell-based. The conditions noted are these: T-REx-293, 72 h, Table 7-B; T-Rex 293 cells with doxycycline (increased ERα expression); 72 hours; CellTiter-Glo; read-out: (+) Dox GI50. In outline: (§1)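 Cells of an inducible ERα-expressing T-Rex 293 clone are seeded in charcoal-dextran FBS medium with or without 3 ng/mL doxycycline, then treated after 24 h with compound dilutions (0.5% DMSO) for 72 h. Growth inhibition is measured by CellTiter-Glo luminescence and expressed as GI50.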

Assay [4] concerns T-Rex 293 cells lacking increased expression of estrogen receptor alpha protein. Description: Cellular growth inhibition assay, T-Rex 293 cells, (−) doxycycline. The class given is cell-based. The conditions noted are these: T-REx-293, 72 h, Table 7-B; T-Rex 293 cells without doxycycline (lacking increased ERα expression); 72 hours; CellTiter-Glo; read-out: (−) Dox GI50. Summed up:
as §1

For `CCN(CCOCCOCCNS(=O)(=O)c1ccc(Nc2ncc(Br)c(Nc3cccc(F)c3C(N)=O)n2)cc1)CCOc1ccc(C(=O)c2c(-c3ccc(O)cc3)sc3cc(O)ccc23)cc1` [I-40], in assay [1], the Kd lay in the range of 50 to 500 nM.

Take `CCN(CCOCCOCCOCCOCCOCCOCCNS(=O)(=O)c1ccc(Nc2ncc(Br)c(Nc3cccc(F)c3C(N)=O)n2)cc1)CCOc1ccc(C(=O)c2c(-c3ccc(O)cc3)sc3cc(O)ccc23)cc1` [I-42]: in assay [1], the equilibrium dissociation constant (Kd) lay in the range of 50 to 500 nM.

As for `COc1cc(N2CCN(CC3(O)CCN(c4ccc(C5=N[C@@H](C)c6nnc(C)n6-c6sc(C)c(C)c65)cc4)CC3)CC2)ccc1[C@H]1c2ccc(O)cc2CC[C@H]1c1ccc(C(F)(F)F)cc1` [III-348], the GI50 in assay [2], in assay [3] and in assay [4] was 500 to 2500 nM each time.
